According to PMC4635504, “Characterization of a bifidobacterial system that utilizes galacto-oligosaccharides” (Microbiology, 2015):

Target: T1, BbrY_0420 (SBP of the ABC transporter) (Bifidobacterium breve, UniProt A0AAX3NJV5)
T1 sequence (A0AAX3NJV5 1-449): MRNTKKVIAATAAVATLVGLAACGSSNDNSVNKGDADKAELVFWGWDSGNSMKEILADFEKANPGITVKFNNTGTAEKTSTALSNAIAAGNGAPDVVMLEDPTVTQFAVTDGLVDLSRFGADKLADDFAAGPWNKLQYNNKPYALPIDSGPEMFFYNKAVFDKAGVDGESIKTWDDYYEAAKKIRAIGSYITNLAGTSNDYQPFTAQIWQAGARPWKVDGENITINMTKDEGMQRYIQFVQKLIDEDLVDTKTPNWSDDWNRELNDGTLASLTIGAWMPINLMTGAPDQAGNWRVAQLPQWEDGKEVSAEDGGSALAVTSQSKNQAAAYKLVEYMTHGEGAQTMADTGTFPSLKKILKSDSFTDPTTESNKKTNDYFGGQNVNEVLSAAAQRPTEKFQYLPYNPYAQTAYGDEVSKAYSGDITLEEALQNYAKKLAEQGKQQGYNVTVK
Settings: HBS-P+ buffer, 25 °C, one-site binding model

Kd: 10.4 µM
Structure (SMILES): OC[C@H]1O[C@@H](O[C@@H]2[C@H](O)[C@@H](O)[C@H](O[C@H]3[C@H](O)[C@@H](O)C(O)O[C@@H]3CO)O[C@@H]2CO)[C@H](O)[C@@H](O)[C@H]1O (stereo partly shown) [4′-GL, 4′-galactosyllactose]
